Where a name gives a salt, the structure may show the parent alone.

The subject of the test is rat embryo ventral mesencephalic cells. The test can be described thus: Neuroprotection assay (NMDA neuroexcitotoxic injury, high affinity 3H-dopamine uptake). It counts as cell-based, Sprague-Dawley rat. To be noted: embryonic day 15 rat VM cell culture, NMDA (100-400 μM) for 20 hours. The text has this: The neuroprotective activity of the compounds of this invention may be assayed using rat embryo ventral mesencephalic cells in culture which are subsequently exposed to the glutamate receptor agonist NMDA. This assay is described in detail in the example section.
The ventral mesencephalic region was dissected out of embryonic day 15 Sprague-Dawley rat embryos (Harlan), dissociated into single cell suspension by a combination of trypsinization and trituration (Costantini et al., Neurobiol Dis., pp. 97-106 (1998). Dissociated VM cells were plated into poly-L-ornithine-coated 96-well plates at a density of 85,000 cells/well in 100 uL of DMEM supplemented with 18% heat-inactivated horse serum, 0.24% glucose, 2 mM glutamine and 50 u/ml penicillin/streptomycin and incubated in a 5% CO2 incubator. After one day in culture (DIV1), the medium was replaced with 100 μL of a defined medium (DMEM supplemented with 1× N2 cocktail (Gibco-BRL), 0.12% glucose, 2 mM glutamine, and 50 units/ml penicillin/streptomycin) containing DMSO or various concentrations of the compounds of this invention. On DIV5, neuroexcitotoxic injury was induced by the addition of various concentrations of the glutamate receptor agonist NMDA (100-400 μM). Cultures were incubated with the neurotoxin for 20 hours and the effects of neurophilin compounds were assessed using high affinity ^3H-dopamine uptake according to a procedure published by Park and Mytilineou [Brain Res., 599, pp. 83-97 (1992)].
Regarding `CN1CSC(C)(C)[C@@H]1C(=O)N1CCC(Cc2ccccc2)CC1` [Compound 228], the EC50 – broadly, the concentration needed to bring the measured effect to its halfway point – is greater than 500 nM.
For `CN1C[C@H](c2ccccc2)C[C@H]1C(=O)N1CCN(C(c2ccc(F)cc2)c2ccc(F)cc2)CC1` [Compound 224] the value was greater than 500 nM.
In the case of `O=C([C@@H]1C=CCN1Cc1ccccc1)N1CCC(Cc2ccccc2)CC1` [Compound 219] it was 100 to 500 nM.
In the case of `CCN1C(C)CC[C@H]1C(=O)N1CCN(C(c2ccc(F)cc2)c2ccc(F)cc2)CC1` (some centres unmarked) [Compound 207] it was 100 to 500 nM; in that of `CCN1CCCC[C@H]1C(=O)N1CCN(c2ccccc2)CC1` [Compound 39, ((2S)-1-Ethylpiperidin-2-yl)-(4-phenylpiperazin-1-yl)-methanone dihydrochloride], less than 100 nM.
For `CCN1CCCC[C@H]1C(=O)N1CCN(C(c2ccccc2)c2ccc(F)cc2)CC1` (stereo partly drawn) [Compound 42, ((2S)-1-Ethylpiperidin-2-yl)-{4-[(4-fluorophenyl)phenylmethy]-piperazin-1-yl}-methanone dihydrochloride], the half-maximal effective concentration (EC50) is less than 100 nM.
For `C[C@H]1CCN(Cc2ccccc2)[C@@H]1C(=O)N1CCC(Cc2ccccc2)CC1` [Compound 223] the value was less than 100 nM; for `CCN1[C@@H](c2ccccc2)CC[C@H]1C(=O)N1CCN(C(c2ccc(F)cc2)c2ccc(F)cc2)CC1` [Compound 225], less than 100 nM.
In the case of `CCN1CCCC[C@H]1C(=O)N1C[C@@H]2C[C@H]1CN2C(c1ccccc1)c1ccccc1` [Compound 17, 1-[(1S, 4S)-5-(1,1-Diphenylmethyl)-5-diazabicyclo[2.2.1]-hept-2-yl]-1-((S)-1-ethylpiperidin-2-yl)methanone] it was 100 to 500 nM; in that of `CCN1[C@@H](C(=O)N2CCC(Cc3ccccc3)CC2)CC[C@H]1c1ccccc1` [Compound 246], less than 100 nM; in that of `CCN1CCC[C@]1(C)C(=O)N1CCC(Cc2ccccc2)CC1` [Compound 242], less than 100 nM.
For `C=CCN1CCC[C@H]1C(=O)N1CCC(Cc2ccc(F)cc2)CC1` [Compound 263] the value was less than 100 nM; for `CCN1C[C@H]2C[C@@H]2C1C(=O)N1CCN(C(c2ccc(F)cc2)c2ccc(F)cc2)CC1` (some centres unmarked) [Compound 203], 100 to 500 nM; for `CC(C)=CCN1CCC[C@H]1C(=O)N1CCC(Cc2ccc(F)cc2)CC1` [Compound 265], less than 100 nM.
With `CN1[C@@H](C(=O)N2CCN(C(c3ccc(F)cc3)c3ccc(F)cc3)CC2)CC[C@H]1c1ccccc1` [Compound 222], the EC50 is greater than 500 nM.
For `CN1CSC(C)(C)[C@H]1C(=O)N1CCN(C(c2ccc(F)cc2)c2ccc(F)cc2)CC1` [Compound 216] the value was greater than 500 nM; for `O=C([C@H]1CC[C@@H](c2ccccc2)N1Cc1ccccc1)N1CCC(Cc2ccccc2)CC1` [Compound 231], 100 to 500 nM; for `CCN1CC[C@@H](c2ccccc2)[C@H]1C(=O)N1CCN(C(c2ccc(F)cc2)c2ccc(F)cc2)CC1` [Compound 217], greater than 500 nM.
For `O=C([C@H]1CC[C@@H](c2ccccc2)N1Cc1ccccc1)N1CCN(C(c2ccc(F)cc2)c2ccc(F)cc2)CC1` [Compound 247] the value was greater than 500 nM; for `CCN1CC[C@H](C)[C@H]1C(=O)N1CCC(Cc2ccccc2)CC1` [Compound 238], less than 100 nM.
For `O=C(C1CCN(CC2CC2)CC1)N1CCC(Cc2ccc(F)cc2)CC1` [Compound 278] the value was less than 100 nM; for `C[C@@]1(C(=O)N2CCC(Cc3ccccc3)CC2)CCCN1Cc1ccccc1` [Compound 229], greater than 500 nM; for `O=C([C@@H]1C=CCN1Cc1ccccc1)N1CCN(C(c2ccc(F)cc2)c2ccc(F)cc2)CC1` [Compound 237], greater than 500 nM.
With `CCN1CCC[C@H]1C(=O)N1CCC(Cc2ccc(F)cc2)CC1` [Compound 259], the EC50 was in the range of 100 to 500 nM.
In the case of `O=C([C@@H]1CCCN1Cc1cccc(F)c1)N1CCC(Cc2ccc(F)cc2)CC1` [Compound 279] it was less than 100 nM; in that of `CCN1CC=C[C@H]1C(=O)N1CCC(Cc2ccccc2)CC1` [Compound 234], greater than 500 nM.
For `O=C(C1[C@H]2C[C@@H]2CN1Cc1ccccc1)N1CCC(Cc2ccccc2)CC1` (some centres unmarked) [Compound 221] the value was less than 100 nM.
In the case of `CCN1CC[C@H]1C(=O)N1CCN(C(c2ccc(F)cc2)c2ccc(F)cc2)CC1` [Compound 254] it was 100 to 500 nM; in that of `C[C@H]1CCN(Cc2ccccc2)[C@@H]1C(=O)N1CCN(C(c2ccc(F)cc2)c2ccc(F)cc2)CC1` [Compound 241], greater than 500 nM; in that of `CCN1CCCC[C@H]1C(=O)N1CCN(Cc2cccs2)CC1` [Compound 73, ((2S)-1-Ethylpiperidin-2-yl)-(4-thiophen-2-ylmethylpiperazin-1-yl)-methanone dihydrochloride], greater than 500 nM.
As for `CN1CSC(C)(C)[C@@H]1C(=O)N1CCN(C(c2ccc(F)cc2)c2ccc(F)cc2)CC1` [Compound 230], the EC50 is greater than 500 nM.
In the case of `CN1CCC[C@H]1C(=O)N1CCN(C(c2ccccc2)c2ccccc2)CC1` [Compound 8] it was greater than 500 nM; in that of `O=C([C@@H]1CCCN1Cc1ccccc1)N1CCN(C(c2ccc(F)cc2)c2ccc(F)cc2)CC1` [Compound 51, ((2S)-1-Benzylpyrrolidin-2-yl)-{4-bis-(4-fluorophenyl)methyl]-piperazin-1-yl}-methanone dihydrochloride], greater than 500 nM; in that of `O=C([C@@H]1CCCN1Cc1ccc(F)cc1)N1CCC(Cc2ccc(F)cc2)CC1` [Compound 271], less than 100 nM.
`CCN1C(C)CC[C@H]1C(=O)N1CCC(Cc2ccccc2)CC1` (some centres unmarked) [Compound 240]: the EC50 is less than 100 nM.
For `O=C([C@@H]1C[C@@H](c2ccccc2)CN1Cc1ccccc1)N1CCN(C(c2ccc(F)cc2)c2ccc(F)cc2)CC1` [Compound 251] the value was greater than 500 nM; for `O=C(C1CCN(Cc2ccccc2)CC1)N1CCC(Cc2ccc(F)cc2)CC1` [Compound 272], 100 to 500 nM; for `O=C([C@@H]1CCCN1CC1CC1)N1CCC(Cc2ccc(F)cc2)CC1` [Compound 267], less than 100 nM.
For `CC1CC[C@@H](C(=O)N2CCC(Cc3ccccc3)CC2)N1Cc1ccccc1` (some centres unmarked) [Compound 227] the value was 100 to 500 nM; for `O=C([C@@H]1CC[C@H](c2ccccc2)N1Cc1ccccc1)N1CCN(C(c2ccc(F)cc2)c2ccc(F)cc2)CC1` [Compound 249], greater than 500 nM.
In the case of `CCN1C[C@H](c2ccccc2)C[C@H]1C(=O)N1CCN(C(c2ccc(F)cc2)c2ccc(F)cc2)CC1` [Compound 215] it was greater than 500 nM; in that of `CCN1CSC[C@H]1C(=O)N1CCC(Cc2ccccc2)CC1` [Compound 244], greater than 500 nM.
Take `CON=C1C[C@@H](C(=O)N2CCC(Cc3ccccc3)CC2)N(Cc2ccccc2)C1` [Compound 31, (2S)-1-Benzyl-5-(4-benzylpiperidine-1-carbonyl)-pyrrolidin-3-one O-methyl-oxime]: the EC50 was in the range of 100 to 500 nM.
For `CCN1CSC[C@H]1C(=O)N1CCN(C(c2ccc(F)cc2)c2ccc(F)cc2)CC1` [Compound 211], the EC50 was greater than 500 nM.
In the case of `CCN1CC[C@H](C)[C@H]1C(=O)N1CCN(C(c2ccc(F)cc2)c2ccc(F)cc2)CC1` [Compound 205] it was less than 100 nM.
For `O=C([C@@H]1[C@H](c2ccccc2)CCN1Cc1ccccc1)N1CCN(C(c2ccc(F)cc2)c2ccc(F)cc2)CC1` [Compound 253] the value was greater than 500 nM; for `CCN1CC=C[C@H]1C(=O)N1CCN(C(c2ccc(F)cc2)c2ccc(F)cc2)CC1` [Compound 201], greater than 500 nM; for `CCN1CCCC[C@H]1CN1CCN(C(c2ccc(F)cc2)c2ccc(F)cc2)CC1` [Compound 102, 1-[Bis-(4-fluorophenyl)methyl)-4-((2S)-1-ethylpiperidin-2-ylmethyl)-piperazine.], less than 100 nM.
For `CCN1C[C@H]2C[C@@H]2C1C(=O)N1CCC(Cc2ccccc2)CC1` (some centres unmarked) [Compound 236] the value was 100 to 500 nM; for `C=CCN1CCCC[C@H]1C(=O)N1CCN(C(c2ccc(F)cc2)c2ccc(F)cc2)CC1` [Compound 64, ((2S)-1-Allylpiperidin-2-yl)-{4-[bis-(4-fluorophenyl)methyl]-piperazin-1-yl}-methanone], greater than 500 nM.
Take `CCN1CCCC[C@H]1C(=O)N1C[C@@H]2C[C@H]1CN2Cc1ccccc1` (stereo in doubt) [Compound 24, 1-(5-benzyl-2,5-diaza-bicyclo[2.2.1]-hept-2-yl)-1-((S)-1-ethyl-piperidino-2-yl)-methanone]: the EC50 is greater than 500 nM.
In the case of `CCN1CCC[C@]1(C)C(=O)N1CCN(C(c2ccc(F)cc2)c2ccc(F)cc2)CC1` [Compound 209], the EC50 was 100 to 500 nM.
In the case of `O=C([C@@H]1CCCN1Cc1ccccc1)N1CCN(C(c2ccccc2)c2ccccc2)CC1` [Compound 7], the EC50 is less than 100 nM.
In the case of `CCN1[C@@H](c2ccccc2)CC[C@H]1C(=O)N1CCC(Cc2ccccc2)CC1` [Compound 248] it was 100 to 500 nM.
`CCN1[C@@H](C(=O)N2CCN(C(c3ccc(F)cc3)c3ccc(F)cc3)CC2)CC[C@H]1c1ccccc1` [Compound 213]: the EC50 was greater than 500 nM.
For `O=C([C@@H]1CCCN1CCc1ccccc1)N1CCC(Cc2ccc(F)cc2)CC1` [Compound 273] the value was less than 100 nM.
